These are literature values, as cited in patent publication US20060122162A1, “Methods of using temozolomide formulation intrathecally in the treatment of cancers” (Schering Corporation, priority 2004, published 2006).

On to `Cn1nnc2c(C(N)=O)ncn2c1=O` [Temozolomide, 3,4-dihydro-3-methyl-4-oxoimidazo-[5,1-d]-1,2,3,4-tetrazin-8-carboximide], for which the solubility in water result was “water-insoluble”. For the same molecule, the “patients in whom clinical responses were achieved” value in the data set with advanced melanoma (patients having advanced melanoma, Newlands et al., Br J Cancer 1992) is recorded as 17%. The “patients in whom a clinical response was achieved” value in the data set on advanced melanoma (patients with advanced melanoma, Bleehan et al., Journal of Clinical Oncology 1995) is given as 21%.
